Results as given in ChEMBL document CHEMBL1201862, “PubChem BioAssay data set” (2004).
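Growth conditions: 96-well plates. Treatment: test compound, 48 hours, 5 concentrations. Analysis: linear interpolation between bracketing concentrations; unreached endpoints set to highest concentration. The concentration for 50% growth inhibition is given as GI50.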 Active and inactive are the calls of the source. No stated cut-off is given here; in the data, active = GI50 up to about 1.1 µM and inactive = higher.

Assays:
Assay in all cases: NCI tumour cell line growth inhibition, 48 h
M19-MEL = test system: M19-MEL
NCI-H226 = test system: NCI-H226
NCI-H23 = test system: NCI-H23
HCT-116 = test system: HCT-116
SNB-19 = test system: SNB-19
RPMI-8226 = test system: RPMI-8226
SF-539 = test system: SF-539
COLO 205 = test system: COLO 205
SR = test system: SR
UACC-62 = test system: UACC-62
MOLT-4 = test system: MOLT-4
NCI-H522 = test system: NCI-H522
SK-OV-3 = test system: SK-OV-3
K562 = test system: K562
HCC 2998 = test system: HCC 2998
786-0 = test system: 786-0
IGROV-1 = test system: IGROV-1

Structure (SMILES)	GI50 (M19-MEL)	GI50 (NCI-H226)	GI50 (NCI-H23)	GI50 (HCT-116)	GI50 (SNB-19)	GI50 (RPMI-8226)	GI50 (SF-539)	GI50 (COLO 205)	GI50 (SR)	GI50 (UACC-62)	GI50 (MOLT-4)	GI50 (NCI-H522)	GI50 (SK-OV-3)	GI50 (K562)	GI50 (HCC 2998)	GI50 (786-0)	GI50 (IGROV-1)
CCOC(=O)c1cc(-c2ccc(-c3cc(C(=O)OCC)c(C#N)c(N)c3C#N)cc2)c(C#N)c(N)c1C#N	> 100 µM (inactive)	> 100 µM (inactive)	> 100 µM (inactive)	> 100 µM (inactive)	> 100 µM (inactive)	> 100 µM (inactive)	> 100 µM (inactive)	> 100 µM (inactive)	> 100 µM (inactive)	> 100 µM (inactive)	> 100 µM (inactive)	> 100 µM (inactive)	> 100 µM (inactive)	> 100 µM (inactive)	> 100 µM (inactive)	> 100 µM (inactive)	> 100 µM (inactive)
CO[C@H](C(=O)O[C@H]1C(=O)N2CCC3CCC1C32C)c1ccccc1 (stereo partly drawn)	> 100 µM (inactive)	> 100 µM (inactive)	> 100 µM (inactive)	> 100 µM (inactive)	> 100 µM (inactive)	> 100 µM (inactive)	> 100 µM (inactive)	> 100 µM (inactive)	> 100 µM (inactive)	> 100 µM (inactive)	> 100 µM (inactive)	> 100 µM (inactive)	> 100 µM (inactive)	> 100 µM (inactive)	> 100 µM (inactive)	> 100 µM (inactive)	> 100 µM (inactive)
CC(N)CC(=O)O (stereo not drawn)	> 5000 µM (inactive)	> 5000 µM (inactive)	> 5000 µM (inactive)	> 5000 µM (inactive)		> 5000 µM (inactive)	> 5000 µM (inactive)	> 5000 µM (inactive)	> 5000 µM (inactive)	> 5000 µM (inactive)	> 5000 µM (inactive)	> 5000 µM (inactive)	> 5000 µM (inactive)	> 5000 µM (inactive)	> 5000 µM (inactive)	> 5000 µM (inactive)	> 5000 µM (inactive)
COc1cc2cnc3c4cc(OCc5ccccc5)ccc4ccc3c2cc1OC	27.4 µM (inactive)	25.8 µM (inactive)	25.2 µM (inactive)	45.8 µM (inactive)	34.8 µM (inactive)	2.96 µM (inactive)	34 µM (inactive)	18.5 µM (inactive)	4.5 µM (inactive)	39.5 µM (inactive)	5.06 µM (inactive)	17.3 µM (inactive)	12.7 µM (inactive)	10.4 µM (inactive)	31.8 µM (inactive)	12.1 µM (inactive)	28.1 µM (inactive)
NC(=S)N/N=C/C(O[C@@H](/C=N/NC(N)=S)CO)n1cnc2c(N)ncnc21 (stereo partly drawn)	97.1 µM (inactive)	> 100 µM (inactive)	> 100 µM (inactive)	24.4 µM (inactive)	> 100 µM (inactive)	> 45 µM (inactive)	> 100 µM (inactive)	> 49.8 µM (inactive)	> 100 µM (inactive)	> 81.7 µM (inactive)	50.7 µM (inactive)	> 47.9 µM (inactive)	> 100 µM (inactive)	> 54.7 µM (inactive)	> 100 µM (inactive)	> 58.2 µM (inactive)	> 56.2 µM (inactive)
COc1cc([C@@H]2c3cc4c(cc3[C@@H](NCc3ccccc3)C3COC(=O)[C@@H]32)OCO4)cc(OC)c1O (stereo partly drawn)	14.1 µM (inactive)	3.46 µM (inactive)	3.64 µM (inactive)	14 µM (inactive)	4.86 µM (inactive)	3.8 µM (inactive)	6 µM (inactive)	27.2 µM (inactive)	0.345 µM (active)	3.83 µM (inactive)	0.891 µM (active)		6.52 µM (inactive)	16.6 µM (inactive)	17.1 µM (inactive)	3.47 µM (inactive)	21.3 µM (inactive)
C/C(CC(=O)Nc1ccccc1[N+](=O)[O-])=N\NC(N)=O	> 100 µM (inactive)	> 100 µM (inactive)	> 100 µM (inactive)	> 100 µM (inactive)		> 100 µM (inactive)	> 100 µM (inactive)	> 100 µM (inactive)		> 100 µM (inactive)	> 100 µM (inactive)	> 100 µM (inactive)	> 100 µM (inactive)	> 100 µM (inactive)	> 100 µM (inactive)	> 100 µM (inactive)	> 100 µM (inactive)
OCc1c(-c2cccc3ccccc23)sc(-c2cccc3ccccc23)c1CO	15.5 µM (inactive)	16.7 µM (inactive)	14.5 µM (inactive)		12.5 µM (inactive)	6.9 µM (inactive)	15.3 µM (inactive)	11.6 µM (inactive)	13.5 µM (inactive)	11.3 µM (inactive)	9.04 µM (inactive)	10.5 µM (inactive)	15.2 µM (inactive)	6.5 µM (inactive)	18.1 µM (inactive)	14 µM (inactive)	14.1 µM (inactive)
COc1cc(C2c3cc4c(cc3C(NCC(O)CO)C3COC(=O)[C@H]23)OCO4)cc(OC)c1OC (stereo partly drawn)	0.927 µM (active)	0.289 µM (active)	0.267 µM (active)		0.356 µM (active)	0.321 µM (active)	0.146 µM (active)	0.184 µM (active)	0.177 µM (active)	0.0973 µM (active)	0.272 µM (active)	0.0405 µM (active)	0.422 µM (active)	0.361 µM (active)	0.428 µM (active)	0.578 µM (active)	> 100 µM (inactive)
CCOc1ccccc1NC(=O)C(=O)CC(=O)C1=C(C)Nc2ccccc2S1	> 100 µM (inactive)	> 100 µM (inactive)	> 100 µM (inactive)	> 100 µM (inactive)	> 100 µM (inactive)	> 100 µM (inactive)	> 100 µM (inactive)	> 100 µM (inactive)		> 100 µM (inactive)	> 49.7 µM (inactive)	> 100 µM (inactive)	> 100 µM (inactive)	> 30.5 µM (inactive)	> 100 µM (inactive)	> 100 µM (inactive)	> 100 µM (inactive)
C#CCN(Cc1ccc2nc(-c3ccccc3)c(Cl)nc2c1)c1ccc(Cl)c(Cl)c1	> 100 µM (inactive)		> 100 µM (inactive)	> 100 µM (inactive)	> 100 µM (inactive)		> 100 µM (inactive)	> 100 µM (inactive)	> 100 µM (inactive)	> 100 µM (inactive)	> 100 µM (inactive)	> 100 µM (inactive)	> 100 µM (inactive)	> 100 µM (inactive)	33.5 µM (inactive)	> 100 µM (inactive)	> 100 µM (inactive)
O=[N+]([O-])c1ccc(Sc2c3ccccc3nc3cc(Cl)ccc23)cc1	> 10 µM (inactive)	> 10 µM (inactive)		> 10 µM (inactive)	> 10 µM (inactive)	> 100 µM (inactive)	> 10 µM (inactive)	> 10 µM (inactive)	25.7 µM (inactive)	> 10 µM (inactive)	34.4 µM (inactive)	> 10 µM (inactive)	> 10 µM (inactive)	> 10 µM (inactive)	> 10 µM (inactive)	> 10 µM (inactive)	> 10 µM (inactive)
NC(=O)c1cn(C2OC(CO)C(O)C2O)c(=O)[nH]c1=O (stereo not drawn)	> 100 µM (inactive)	> 100 µM (inactive)	> 100 µM (inactive)	> 100 µM (inactive)		> 100 µM (inactive)	> 100 µM (inactive)	> 100 µM (inactive)	> 100 µM (inactive)	> 100 µM (inactive)	> 100 µM (inactive)	> 100 µM (inactive)	> 100 µM (inactive)	> 100 µM (inactive)		> 100 µM (inactive)	> 100 µM (inactive)
CC(C)OC(=O)C1=C(O)c2ccccc2S(=O)(=O)N1	> 100 µM (inactive)	> 100 µM (inactive)	> 100 µM (inactive)	> 100 µM (inactive)	> 100 µM (inactive)		> 100 µM (inactive)	> 100 µM (inactive)		> 100 µM (inactive)	> 100 µM (inactive)	> 100 µM (inactive)	> 100 µM (inactive)	> 100 µM (inactive)	> 100 µM (inactive)	> 100 µM (inactive)	> 100 µM (inactive)
CC(=O)Oc1c2c(c(OC(C)=O)c3c1n(C(C)=O)c1ccccc1n3C(C)=O)n(C(C)=O)c1ccccc1n2C(C)=O	1.95 µM (inactive)		8.24 µM (inactive)	1.95 µM (inactive)	12.4 µM (inactive)	2.48 µM (inactive)	13.4 µM (inactive)		2.62 µM (inactive)	8.73 µM (inactive)	2.3 µM (inactive)	2.3 µM (inactive)	23.6 µM (inactive)	2.86 µM (inactive)	3.67 µM (inactive)	3.46 µM (inactive)	> 10 µM (inactive)
COc1ccc(C(=O)O)c(Cc2cccc3ccccc23)c1	> 100 µM (inactive)	> 100 µM (inactive)	> 100 µM (inactive)	> 100 µM (inactive)	> 100 µM (inactive)			> 100 µM (inactive)	> 100 µM (inactive)	85.9 µM (inactive)	> 100 µM (inactive)	> 100 µM (inactive)	> 100 µM (inactive)	81.8 µM (inactive)	> 100 µM (inactive)	> 100 µM (inactive)	> 100 µM (inactive)
CC(C)(Oc1ccc2c(=O)cc(-c3ccc(Cl)cc3)oc2c1)C(=O)Nc1c(Cl)cccc1Cl	> 100 µM (inactive)		> 100 µM (inactive)	> 100 µM (inactive)	> 100 µM (inactive)	> 100 µM (inactive)	> 100 µM (inactive)		79.3 µM (inactive)	> 100 µM (inactive)	> 100 µM (inactive)	> 100 µM (inactive)	> 100 µM (inactive)	5.98 µM (inactive)		> 100 µM (inactive)	> 100 µM (inactive)
